This is an account of results in US20240254087A1, “SELECTIVE, PARTIAL, AND ARRESTIN-BIASED 5-HT2A AGONISTS WITH UTILITY IN VARIOUS DISORDERS” (Saint Joseph's University, priority 2021, published 2024).

Like-named read-outs stand apart in the source and are kept apart here.

For experiment [1], the system named is 5-HT2A. The experiment is described as follows: Ca2+ flux assay, 5-HT2A. The settings on record: Gq/11 Ca2+ mobilization; higher number = skewed towards 5-HT2A. It counts as cell-based, human.
Another experiment concerns the target T1, 5-HT1A (Homo sapiens, UniProt P08908).
T1 sequence (P08908 1-422): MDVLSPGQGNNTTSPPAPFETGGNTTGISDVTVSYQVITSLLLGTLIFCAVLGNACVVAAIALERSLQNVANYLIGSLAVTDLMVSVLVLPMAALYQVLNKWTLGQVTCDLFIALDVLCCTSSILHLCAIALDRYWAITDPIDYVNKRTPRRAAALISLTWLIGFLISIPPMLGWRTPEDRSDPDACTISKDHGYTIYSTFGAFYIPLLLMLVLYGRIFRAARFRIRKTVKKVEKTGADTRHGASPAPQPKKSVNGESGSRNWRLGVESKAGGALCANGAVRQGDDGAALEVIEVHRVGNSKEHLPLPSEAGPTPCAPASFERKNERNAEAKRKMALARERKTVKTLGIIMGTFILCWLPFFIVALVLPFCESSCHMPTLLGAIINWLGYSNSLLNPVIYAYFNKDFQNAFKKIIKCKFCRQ
The experiment is described as follows: Competitive radioligand binding (NIMH PDSP).

In another experiment the target is 5-HT1B (Homo sapiens, UniProt P28222). The experiment is described as follows: Competitive radioligand binding (NIMH PDSP).
5-HT1B, sequence (P28222 whole entry, species assumed): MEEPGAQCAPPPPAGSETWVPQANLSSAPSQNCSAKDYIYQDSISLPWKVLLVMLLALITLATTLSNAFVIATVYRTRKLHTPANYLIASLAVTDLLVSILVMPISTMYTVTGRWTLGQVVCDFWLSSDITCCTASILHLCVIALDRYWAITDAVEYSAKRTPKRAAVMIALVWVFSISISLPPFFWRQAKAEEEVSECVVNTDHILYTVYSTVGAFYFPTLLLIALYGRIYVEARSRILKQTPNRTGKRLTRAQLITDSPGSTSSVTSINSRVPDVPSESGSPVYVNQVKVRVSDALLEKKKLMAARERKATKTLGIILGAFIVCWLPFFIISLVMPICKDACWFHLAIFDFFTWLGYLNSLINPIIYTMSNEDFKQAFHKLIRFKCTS
For the next experiment, the target named is 5-HT1D (Homo sapiens, UniProt P28221). The experiment is described as follows: Competitive radioligand binding (NIMH PDSP).
5-HT1D, sequence (P28221 whole entry, species assumed): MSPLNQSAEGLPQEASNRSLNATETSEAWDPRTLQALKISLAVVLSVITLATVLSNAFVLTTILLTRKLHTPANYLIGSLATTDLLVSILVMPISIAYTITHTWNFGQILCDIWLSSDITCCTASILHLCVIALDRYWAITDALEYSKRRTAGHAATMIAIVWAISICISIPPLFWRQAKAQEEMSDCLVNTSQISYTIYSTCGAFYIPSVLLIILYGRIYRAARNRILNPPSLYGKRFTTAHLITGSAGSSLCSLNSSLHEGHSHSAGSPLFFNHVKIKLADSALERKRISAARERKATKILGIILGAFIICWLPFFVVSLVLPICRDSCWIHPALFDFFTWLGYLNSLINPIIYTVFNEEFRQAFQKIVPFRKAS
In a further experiment the target is 5-HT1e (Homo sapiens, UniProt P28566). The experiment can be described thus: Competitive radioligand binding (NIMH PDSP).
5-HT1e, sequence (P28566 whole entry, species assumed): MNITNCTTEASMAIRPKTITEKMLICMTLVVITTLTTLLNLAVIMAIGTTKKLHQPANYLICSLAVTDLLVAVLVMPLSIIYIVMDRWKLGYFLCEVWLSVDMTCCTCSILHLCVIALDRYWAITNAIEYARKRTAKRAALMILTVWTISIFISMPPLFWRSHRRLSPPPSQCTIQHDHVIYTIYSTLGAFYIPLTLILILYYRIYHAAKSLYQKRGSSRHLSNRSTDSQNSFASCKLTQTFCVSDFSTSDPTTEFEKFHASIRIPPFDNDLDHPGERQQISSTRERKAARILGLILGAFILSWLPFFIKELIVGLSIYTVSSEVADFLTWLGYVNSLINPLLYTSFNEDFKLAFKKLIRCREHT
Experiment [2] addresses T2, 5-HT2A (Homo sapiens, UniProt P28223). The experiment can be described thus: Competitive radioligand binding (NIMH PDSP).
In the next experiment the target is T3, 5-HT3 (Homo sapiens, UniProt P46098).
T3 sequence (P46098 24-478): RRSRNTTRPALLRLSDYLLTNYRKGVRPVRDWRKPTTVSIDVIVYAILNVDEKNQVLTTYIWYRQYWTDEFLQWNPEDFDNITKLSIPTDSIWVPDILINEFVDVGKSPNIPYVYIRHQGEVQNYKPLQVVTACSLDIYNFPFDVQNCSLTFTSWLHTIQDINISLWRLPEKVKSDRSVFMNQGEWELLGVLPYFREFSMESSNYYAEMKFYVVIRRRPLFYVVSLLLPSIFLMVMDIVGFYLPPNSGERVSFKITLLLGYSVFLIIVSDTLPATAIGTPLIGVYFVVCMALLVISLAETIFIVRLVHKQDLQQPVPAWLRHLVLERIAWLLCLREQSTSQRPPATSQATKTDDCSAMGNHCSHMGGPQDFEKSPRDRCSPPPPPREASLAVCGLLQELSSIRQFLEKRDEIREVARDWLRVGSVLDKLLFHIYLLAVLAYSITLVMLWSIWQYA
The experiment can be described thus: Competitive radioligand binding (NIMH PDSP). Put shortly: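 Displacement of radioligand measured in membranes expressing the human receptor; for 5-HT2A, [3H]-ketanserin was displaced. Compounds in DMSO were first screened at 10,000 nM, then Ki determined in triplicate on separate plates, each with a known receptor ligand as positive control.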

Experiment [3] addresses T2, 5-HT2A. The experiment is described as follows: Ca2+ flux assay, 5-HT2A. The class given is cell-based. More on the design: expressed in transfected cells. The settings on record: for Emax: read-out: 5-HT2A Emax % 5-HT, Ca2+ flux. (In general: A change in cytosolic calcium serves as a functional read-out for many receptors and channels.)
Experiment [4] concerns the target T4, 5-HT2B (Homo sapiens, UniProt P41595). The experiment is described as follows: Ca2+ flux assay, 5-HT2B. It counts as cell-based. Set-up: expressed in transfected cells. Particulars: Ca2+ flux; for Emax: read-out: 5-HT2B Emax % 5-HT.
The target in experiment [5] is T5, 5-HT2C (Homo sapiens, UniProt P28335).
T5 sequence (P28335 33-458): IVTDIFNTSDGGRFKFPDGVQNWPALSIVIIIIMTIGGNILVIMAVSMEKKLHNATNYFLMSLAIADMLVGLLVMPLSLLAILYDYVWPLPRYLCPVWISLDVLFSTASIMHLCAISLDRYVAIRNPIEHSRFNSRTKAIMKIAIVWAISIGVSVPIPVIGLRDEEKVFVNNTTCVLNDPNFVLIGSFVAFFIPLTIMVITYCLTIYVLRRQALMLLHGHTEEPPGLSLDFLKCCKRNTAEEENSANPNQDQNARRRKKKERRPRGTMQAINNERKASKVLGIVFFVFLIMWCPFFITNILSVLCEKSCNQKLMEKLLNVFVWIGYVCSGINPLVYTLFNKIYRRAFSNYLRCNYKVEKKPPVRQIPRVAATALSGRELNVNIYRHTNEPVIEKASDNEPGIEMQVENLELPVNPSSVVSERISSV
The experiment can be described thus: Ca2+ flux assay, 5-HT2C. It counts as cell-based. More on the design: expressed in transfected cells. Particulars: for Emax: read-out: 5-HT2C Emax % 5-HT.

The target of experiment [6] is T4, 5-HT2B. The experiment is described as follows: Competitive radioligand binding (NIMH PDSP). More on the design: expressed in transfected cells.
The target of experiment [7] is T5, 5-HT2C. The experiment can be described thus: Competitive radioligand binding (NIMH PDSP). More on the design: expressed in transfected cells.

T2 sequence (P28223 whole entry): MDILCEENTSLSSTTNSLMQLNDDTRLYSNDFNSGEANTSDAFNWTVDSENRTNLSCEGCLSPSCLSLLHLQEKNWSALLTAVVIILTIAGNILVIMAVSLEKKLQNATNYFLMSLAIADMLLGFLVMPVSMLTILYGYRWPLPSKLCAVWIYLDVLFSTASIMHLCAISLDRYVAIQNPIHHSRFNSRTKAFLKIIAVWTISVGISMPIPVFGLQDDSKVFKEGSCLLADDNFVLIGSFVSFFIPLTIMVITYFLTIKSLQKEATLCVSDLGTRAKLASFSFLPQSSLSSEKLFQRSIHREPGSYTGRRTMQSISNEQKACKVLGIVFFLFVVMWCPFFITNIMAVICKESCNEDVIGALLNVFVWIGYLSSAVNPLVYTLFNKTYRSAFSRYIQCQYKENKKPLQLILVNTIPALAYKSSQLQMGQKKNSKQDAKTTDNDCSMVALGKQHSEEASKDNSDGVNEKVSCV
T4 sequence (P41595 whole entry): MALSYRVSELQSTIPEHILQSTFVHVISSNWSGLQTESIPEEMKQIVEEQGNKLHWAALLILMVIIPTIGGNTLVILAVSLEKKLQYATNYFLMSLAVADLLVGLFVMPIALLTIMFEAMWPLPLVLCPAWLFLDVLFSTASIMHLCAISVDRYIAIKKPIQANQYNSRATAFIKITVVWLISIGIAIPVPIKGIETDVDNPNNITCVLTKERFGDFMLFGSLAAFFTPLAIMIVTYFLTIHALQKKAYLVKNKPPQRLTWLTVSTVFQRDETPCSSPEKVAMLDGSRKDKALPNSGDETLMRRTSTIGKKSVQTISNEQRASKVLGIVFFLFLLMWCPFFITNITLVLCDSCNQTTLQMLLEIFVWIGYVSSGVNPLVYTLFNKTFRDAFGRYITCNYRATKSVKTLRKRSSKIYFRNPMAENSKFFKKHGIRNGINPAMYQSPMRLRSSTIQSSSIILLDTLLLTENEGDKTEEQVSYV

What is called Ki is a dissociation constant, usually derived from enzyme kinetics or from competition with a known ligand. The term EC50 denotes the concentration giving half of the maximal effect. Broadly, the Emax is the greatest response seen or fitted, relative to the assay's reference. On to `COc1cc([N+](=O)[O-])c(OC)cc1CCNCc1ccccc1I` [25N-NBI (10)], for which the “5-HT2A/5-HT2c Selectivity Factor ΔLog(Emax/EC50)” value in the experiment with 5-HT2A [1] came out at 406. The Ki at 5-HT1A was 1000 nM; at 5-HT1B, more than 10 µM; at 5-HT1D it was more than 10 µM; on 5-HT1e, more than 10 µM; at 5-HT2A [2] it was 5.37 nM; on 5-HT3 it was more than 10 µM. Besides, the results for the Ki on 5-HT2B [6] and at 5-HT2C [7] were 20 nM and 43.7 nM, respectively. Also, the EC50 on 5-HT2A [3] (5-HT2A EC50, nM, Ca2+ flux) turned out to be 3.29 nM; on 5-HT2C [5] (5-HT2C EC50, nM), 682 nM. Moreover, the Emax was 88 ± 1% on 5-HT2A [3], less than 10% on 5-HT2B [4] and 45 ± 2% on 5-HT2C [5]. At 5-HT2B [4], the “5-HT2B EC50, nM” value is given as “No activity”.

Take `COc1cc([N+](=O)[O-])c(OC)cc1CCNCc1ccccc1[N+](=O)[O-]` [25N-NBNO2 (15), [2-(2,5-dimethoxy-4-nitrophenyl)ethyl][(2-nitrophenyl)methyl]amine]: the “5-HT2A/5-HT2c Selectivity Factor ΔLog(Emax/EC50)” value in the experiment on 5-HT2A [1] was 66.8. Besides, the Ki is 1950 nM on 5-HT1A; more than 10 µM on 5-HT1B; more than 10 µM at 5-HT1D; more than 10 µM at 5-HT1e; 81.3 nM on 5-HT2A [2]; more than 10 µM at 5-HT3. In addition, the Ki at 5-HT2B [6] is 191 nM; at 5-HT2C [7], 282 nM. The EC50 came out at 15.6 nM on 5-HT2A [3] (5-HT2A EC50, nM, Ca2+ flux) and 583 nM on 5-HT2C [5] (5-HT2C EC50, nM). At 5-HT2A [3] (Ca2+ flux), the “5-HT2A Emax % 5-HT” value is given as 64 ± 2 % 5-HT. Also, the Emax at 5-HT2A [3] is not above 77%; at 5-HT2B [4] it was less than 10%; on 5-HT2C [5], 36 ± 2%. Besides, the “5-HT2B EC50, nM” value at 5-HT2B [4] is “No activity”.

`COc1cc([N+](=O)[O-])c(OC)cc1CCNCc1ccccc1OC(F)(F)F` [25N-NBOCF3 (12)]: in the experiment with 5-HT2A [1], the “5-HT2A/5-HT2c Selectivity Factor ΔLog(Emax/EC50)” value was 6.1. Further, on 5-HT1A, the “5-HT1A pKi affinity (Ki ± SEM)” value was 5.95. Also, the “5-HT1B pKi affinity (Ki ± SEM)” value on 5-HT1B was less than 5. Moreover, at 5-HT1D, the “5-HT1D pKi affinity (Ki ± SEM)” value was less than 5. The “5-HT1e pKi affinity (Ki ± SEM)” value on 5-HT1e is on record as less than 5. Moreover, the “5-HT2A pKi affinity (Ki ± SEM)” value at 5-HT2A [2] worked out at 7.84. In addition, the “5-HT3 pKi affinity (Ki ± SEM)” value at 5-HT3 is listed as less than 5. Moreover, on 5-HT2A [3] (Ca2+ flux), the “5-HT2A (pEC50 ± SEM)” value is reported as “(8.09 ± 0.09)” and the “5-HT2A Emax % 5-HT” value was 75 ± 2 % 5-HT. The EC50 at 5-HT2A [3] (Ca2+ flux, read-out: 5-HT2A EC50) turned out to be 8.09 nM. At 5-HT2B [4], the “5-HT2B EC50, nM” value is reported as “No activity” and the “5-HT2B Emax % 5-HT” value is listed as less than 10 % 5-HT. On 5-HT2C [5], the “5-HT2C (pEC50 ± SEM)” value is reported as “(7.23 ± 0.04)” and the “5-HT2C Emax % 5-HT” value amounted to 89 ± 1 % 5-HT. Further, the EC50 at 5-HT2C [5] (read-out: 5-HT2C EC50) turned out to be 58.3 nM. For the same compound, the “5-HT2B pKi affinity (Ki ± SEM)” value at 5-HT2B [6] is given as 7.86. Also, the “5-HT2C pKi affinity (Ki ± SEM)” value at 5-HT2C [7] was determined as 7.33.

As for `COc1cc([N+](=O)[O-])c(OC)cc1CCNCc1ccccc1OC` [25N-NBOMe (4), [2-(2,5-dimethoxy-4-nitrophenyl)ethyl] [(2-methoxyphenyl)methyl]amine], the “5-HT2A/5-HT2c Selectivity Factor ΔLog(Emax/EC50)” value in the experiment on 5-HT2A [1] was 2.4. In addition, the Ki is 1860 nM on 5-HT1A; more than 10 µM on 5-HT1B; 5.62 µM at 5-HT1D; more than 10 µM on 5-HT1e; 0.55 nM at 5-HT2A [2]; more than 10 µM at 5-HT3. Moreover, the Ki at 5-HT2B [6] was 4.47 nM; on 5-HT2C [7], 6.92 nM. The EC50 at 5-HT2A [3] (5-HT2A (pEC50 ± SEM), Ca2+ flux) amounted to 0.316 nM; at 5-HT2C [5] (5-HT2C (pEC50 ± SEM)), 0.851 nM; at 5-HT2C [5] (5-HT2C EC50, nM), 0.84 nM. The Emax was 94% on 5-HT2A [3], less than 10% at 5-HT2B [4] and 102 ± 1% at 5-HT2C [5]. The “5-HT2B EC50, nM” value at 5-HT2B [4] was “No activity”.

Turning to `COc1cc([N+](=O)[O-])c(OC)cc1CCNCc1ccccc1-c1ccccc1` [25N-NBPh (17), ({[1,1′-biphenyl]-2-yl}methyl)[2-(2,5-dimethoxy-4-nitrophenyl)ethyl]amine], in the experiment with 5-HT2A [1], the “5-HT2A/5-HT2c Selectivity Factor ΔLog(Emax/EC50)” value is given as 5-HT2A Selective. In addition, the Ki was 1780 nM on 5-HT1A; more than 10 µM at 5-HT1B; 1.2 µM on 5-HT1D; more than 10 µM on 5-HT1e; 0.331 nM at 5-HT2A [2]; more than 10 µM at 5-HT3. For the same compound, the Ki on 5-HT2B [6] was 1410 nM; at 5-HT2C [7], 372 nM. Further, the “5-HT2A EC50, nM” value at 5-HT2A [3] (Ca2+ flux) is “No activity”. Besides, the Emax at 5-HT2A [3], on 5-HT2B [4] and on 5-HT2C [5] was less than 10% in each case. Besides, the “5-HT2B EC50, nM” value at 5-HT2B [4] is given as “No activity”. The “5-HT2C EC50, nM” value at 5-HT2C [5] is on record as “No activity”.
